According to a melting point compilation (Tetko et al.; mined from patent text by program, amines drawn as free bases though some values may be those of a salt):

Work on CC1(C)CC(c2ccc(F)cc2)=C(c2ccc(S(N)(=O)=O)cc2)C1 yielded a melting point of 117 to 118 °C. With Cc1nc2c(N)nc3ccccc3c2n1OC(C)(C)C the melting point was 255 to 257 °C. With Cc1cc(NCC(O)CO)c2ccccc2n1 (stereo unspecified) the melting point was 167 to 168 °C. Compound CCN1CCN(c2cccc3c2CC(NC(=O)c2ccc(N4CCOCC4)cc2)CC3)CC1 (stereo unspecified) has a melting point of 204 to 206 °C. For O=C(O)CCn1nnnc1-c1ccc2c(c1)S(=O)(=O)c1ccccc1C2=O, the melting point was 143 to 145 °C. With NC(=O)c1ccccc1OCCNCC(O)COc1nccnc1Cl (stereo unspecified) the melting point was 132 to 133 °C. For CCCCCCCCC1(CCn2ccnc2)SCCS1, the melting point was 98 to 101 °C. With COC(=O)C1CCC2C3CCC4CC(O)C(O)CC4(C)C3C(NC(=O)OCC(Cl)(Cl)Cl)CC12C (stereo unspecified) the melting point was 228 to 230 °C. With Cc1cc2nc(NC(=O)CO)sc2cc1C the melting point was 206 to 208 °C. In the case of O=c1[nH]c2ccc(C3=NOC(CN4CCC(S(=O)c5ccc(F)cc5)CC4)C3)cc2o1 (stereo unspecified), the melting point is reported as 170 to 178 °C. In the case of O=C(O)c1cc2ccccc2c(-c2cccc(I)c2)n1, the melting point is reported as 145 to 146 °C. Compound c1ccc2c(c1)N=C(c1ccncc1)c1cccc3c1N2CC3 has a melting point of 152 to 153 °C. In the case of CN1CCC(c2c[nH]c3ccc(C(=O)c4ccc(C(F)(F)F)cc4)cc23)CC1, the melting point is reported as 160 to 162 °C. With O=C(CCCOc1ccc2nc3[nH]c(=O)[nH]c3cc2c1)NC1CCCCCC1 the melting point was 314 to 316 °C. Compound CC(=O)c1csc(S(N)(=O)=O)c1 has a melting point of 170 to 172 °C. With NC(=O)c1sc(-c2ccccc2)cc1N the melting point was 180 to 182 °C. CC(O)(c1ccc(F)cc1)C1CCNCC1 (stereo unspecified) gave a melting point of 184 to 186 °C. CN(C)S(=O)(=O)C(Br)(Br)S(=O)(=O)c1ccccc1 showed a melting point of 144 to 145 °C. In the case of Cc1oc(-c2ccc(C(F)(F)F)cc2)nc1CCl, the melting point is reported as 84 to 85 °C. With CSCCC(NC(=O)OCc1ccccc1)C(N)=O (racemic) the melting point was 120 to 122 °C. In the case of Cc1cc(Nc2c(C#N)cnc3cc(-c4csc(CN5CCOCC5)c4)ccc23)ccc1OCc1ccccn1, the melting point is reported as 217 to 219 °C. Compound Cn1c(C(=O)O)cc2c(OC[C@@H](O)CN3CCC(c4ccc5ccccc5c4)CC3)cccc21 has a melting point of 158 to 161 °C. COc1cc([N+](=O)[O-])ccc1N1C(=O)C(=O)N(c2cccc(Cl)c2)C1=O gave a melting point of 176 to 178 °C. In the case of Fc1ccc(F)c2c(NCCc3ccc(Oc4ccnc(C(F)(F)F)c4)cc3)ncnc12, the melting point is reported as 95 to 96 °C. Work on CC1(C)OCc2cc(C(O)CNCCCCCCOCCCCc3ccccc3)ccc2O1 (stereo unspecified) yielded a melting point of 68 to 70 °C. Compound CCCCOc1cc(CCS(=O)(=O)NC(=O)OCC(C)(C)C)n(Cc2ccc(Cl)cc2Cl)n1 has a melting point of 116 to 118 °C. Work on COc1cc2c3c(cccc3c1N1CCC(N)C1)C(=O)N(O)C2=O (stereo unspecified) yielded a melting point of 217 to 222 °C. CC1=C(Cl)C(=O)c2ccccc2C1=O gave a melting point of 152 to 154 °C. Compound Cc1csc(=S)n1OC(=O)c1ccccc1 has a melting point of 100 to 102 °C. With CC(COS(C)(=O)=O)N1c2ccc(Cl)cc2Sc2ccc(C#N)cc21 (racemic) the melting point was 132 °C. Compound COc1ccc(Cl)c(Oc2c(Cl)nc(C)nc2Cl)c1 has a melting point of 125 to 130 °C. CON(C)C(=O)Nc1cc(C(C)(C)C)on1 showed a melting point of 106 to 107 °C. In the case of O=C(c1ccc(OCCCCl)cc1)c1cccc2[nH]ccc12, the melting point is reported as 86 °C. Work on Cn1ncc(C(=O)O)c1C(=O)Nc1ccn2nc(-c3ccccc3)nc2c1 yielded a melting point of over 300 °C. COc1ccc2c3c1OC1C(=O)CC(C)C4(OC)C(C2)N(C)CCC314 (stereo unspecified) showed a melting point of 204 to 205 °C. For COc1ccnc(OC)c1CON=C(C#N)c1cc(C)cc(C)n1, the melting point was 196 to 201 °C. COC(=O)CCC(=O)c1ccc(NC(=O)C(C)C)c(N)c1 showed a melting point of 178 °C. Compound CNc1nc(S(C)=O)nc(N)c1[N+](=O)[O-] (stereo unspecified) has a melting point of 229 to 234 °C. CCCCCS(=O)(=O)NC(=O)OCc1cc(OC(C)C)nn1Cc1ccc(Cl)cc1Cl showed a melting point of 126 to 128 °C. Compound CS(=O)(=O)c1ccc(N)c([N+](=O)[O-])c1 has a melting point of 195 to 198 °C. With CC1NC(=Nc2ccccc2N2CCOCC2)N(CCO)C1C (stereo unspecified) the melting point was 108 to 109 °C. Compound CCOC(=O)Cc1ccc(NC(=O)C(C)C)cc1 has a melting point of 92.5 to 93.5 °C. Work on CCOc1ccc(OCC(=O)O)c2c1C(=O)N(CSc1nnnn1-c1ccccc1)S2(=O)=O yielded a melting point of 187 to 189 °C. With CCCCCCCCc1c(C)[nH]c(C)c(I)c1=O the melting point was 224 to 226 °C. For C=CC=CCC1CC(NC(=O)C(F)(F)F)C(O)C(C)O1 (stereo unspecified), the melting point was 111 to 112 °C. COc1cc2c(cc1Nc1ncc(Cl)c(N[C@@H]3CCCC[C@H]3NS(C)(=O)=O)n1)CCN(CC(=O)N1CCCC1)CC2 showed a melting point of 120 to 135 °C. For CC(C)(C)c1ccccc1N1CCN(C(=O)CCC(=O)O)CC1, the melting point was 175 to 176 °C. Work on C#Cc1cc(C)c(Oc2ccc(N)c(Nc3ccc(C#N)cc3)n2)c(C)c1 yielded a melting point of 79 to 82 °C. For CCCC=COC1OC(CO)C(O)C(O)C1NC(C)=O (stereo unspecified), the melting point was 146 to 148 °C. Work on COC(=O)CCC(=O)c1ccc(O)cc1 yielded a melting point of 115 to 116 °C. Compound Cn1cnnc1C(c1ccc(Cl)cc1)c1ccc2c(c1)c(-c1cccc(Cl)c1)nc1nnnn12 (stereo unspecified) has a melting point of 217 °C. CN(C)CCOc1cc2c(Nc3ccc(Cl)cc3Cl)c(C#N)cnc2cn1 showed a melting point of 75 to 79 °C. With O=C(O)COc1cc(C(=O)O)ccc1NC(=O)NC(=O)c1ccc(F)cc1Cl the melting point was 279 to 281 °C. Work on O=c1c2ccccc2[nH]n2cccc12 yielded a melting point of over 300 °C. In the case of O=c1cnc(C(F)(F)F)cn1-c1c(Cl)cc(C(F)(F)F)cc1Cl, the melting point is reported as 109 to 111 °C. With CCOC(=O)c1[nH]cc(-c2ccc(F)cc2)c1C(C)C the melting point was 94 to 97 °C. With c1nc2c(cc1NC1=NCCN1)CCCC2 the melting point was 201 to 203 °C. [N-]=[N+]=N[C@H]1C[C@H](C(=O)Nc2ccc(N3CCOCC3=O)cc2)N(C(=O)Nc2ccc(Cl)cc2)C1 showed a melting point of 145 °C. Cc1c(-c2ccccc2)oc2c(OCCCCBr)cccc2c1=O showed a melting point of 91 to 92 °C. With CC(O)=C(C#N)C(=O)Nc1ccc(Br)cc1 the melting point was 213 to 214 °C. Compound COCC(COc1noc2ccc(Cl)cc12)NC=O (stereo unspecified) has a melting point of 90 to 92 °C. COCCc1nc2c(N)nc3ccccc3c2n1CCOCCNC(=O)c1ccc(C(=O)NCCOCCn2c(CCOC)nc3c(N)nc4ccccc4c32)cc1 gave a melting point of 229 to 233 °C. For CCCCCCCCCCCCC(Oc1ccc2c(c1)OCO2)C(=O)O (stereo unspecified), the melting point was 70 to 72 °C. For C#CCN1C(=O)CN(C)c2ccc(-c3ncc(C(F)(F)F)cc3Cl)cc21, the melting point was 128 to 129 °C. CC(C)(C)OC(=O)/C(=C/c1ccc(Br)cc1)C(=O)c1ccccc1O showed a melting point of 98 to 100 °C. Compound COc1ccc2cc([C@H](C)C(=O)OCC(CO[N+](=O)[O-])(CO[N+](=O)[O-])[N+](=O)[O-])ccc2c1 has a melting point of 69 to 71 °C. With CN1CCCCC1CCc1ccccc1NC(=O)c1ccc(Br)cc1 (stereo unspecified) the melting point was 138 °C. With CCC(OC(C)=O)c1ccc(C(OC(C)=O)C(C)(C)C)cc1 (stereo unspecified) the melting point was 64 to 65 °C. C#CCOc1ccc2c(C)cc(=O)oc2c1C(=O)C=Cc1cccnc1 showed a melting point of 203 to 205 °C. Compound Cn1c(C(=O)NN2CCCCC2)cc(-c2ccc(Cl)cc2Cl)c1-c1ccc(Cl)cc1 has a melting point of 218 °C. CCCc1c(OCCCCCOc2ccc3cc(OCC(=O)OCC)ccc3c2CCC(=O)OCC)ccc2c1OCCC2=O showed a melting point of 100 to 102 °C. COc1ccc2[nH]c3c(c2c1)C[C@@]1(C)C(=O)N(CCN2CCCC2)C(=O)N1[C@@H]3c1cccc(O)c1 (racemic) gave a melting point of 252 to 255 °C. In the case of COc1ccc(-n2c(C)nnc2S)cc1, the melting point is reported as 214 °C. In the case of O=C(O)c1ccc(CC(=O)c2ccccc2Cl)cc1, the melting point is reported as 168 to 172 °C. O=[N+]([O-])c1ccc(N2CCN(CCCCCCCCCCCO)CC2)cc1 showed a melting point of 118 °C. Work on Cc1nc(-n2cc(C(=O)NCc3ccc(F)cc3)nn2)sc1C(=O)NCc1ccccc1 yielded a melting point of 198 to 201 °C. In the case of CC(C)CN(C(=O)N(CCCl)N=O)C1OC(OC2CCCCC2)C(O)C(O)C1O (stereo unspecified), the melting point is reported as 74 to 76 °C. Compound Cc1ncc2[nH]c3ccccc3c2n1 has a melting point of 240 to 242 °C. Work on FC(F)(F)c1ccc2c(c1)C(Cl)Cc1c(Cl)cccc1S2 (stereo unspecified) yielded a melting point of 88 to 90 °C. Compound CS(=O)(=O)c1nnc(-c2ccc(Cl)cc2)o1 has a melting point of 159 to 160 °C. For CCOC(=O)c1c2ccc(Cl)cc2c(-c2ccccc2)n1CCO, the melting point was 114 to 116 °C. Compound O=C1Nc2c(F)cc(CN3C(=O)CSC3=O)cc2C1=Cc1cc(CN2CCOCC2)c[nH]1 has a melting point of 246 to 248 °C. With CC(C(=O)O)c1ccc(-c2ccc(F)cc2Br)cc1 (stereo unspecified) the melting point was 77 to 79 °C. O=C(NC1CCN(CCc2ccncc2)CC1)c1ccccc1 gave a melting point of 193 to 195 °C. Work on O=C(O)Cc1ccc(NC(=O)C(Cn2ccnc2)NS(=O)(=O)c2ccc(Br)cc2)cc1 (racemic) yielded a melting point of 131 to 140 °C. For CCCCc1nc2c(C)cccc2n1Cc1cc(C(=O)OC)no1, the melting point was 96 to 101 °C. With Cc1cc(C(C#N)=CN(C)C)ccn1 the melting point was 126 °C. Work on O=S(=O)(NCC1CC1)c1cccc(-c2cc(-c3nc(-c4ccc(C(F)(F)F)cc4)cc(C(F)(F)F)n3)ccn2)c1 yielded a melting point of 134 °C. For CC(=O)c1cc(-c2ccncc2)sc1-c1ccncc1, the melting point was 117 to 119 °C. Work on CC(=O)NCC(=O)Nc1cc(Cl)cc(Nc2ncnc3[nH]cc(C(=O)c4ccccc4)c23)c1 yielded a melting point of over 300 °C. For N#C/C=C1\CCCCC1n1nc(-c2c(-c3ccccc3)nn3ccccc23)ccc1=O (stereo unspecified), the melting point was 70 to 72 °C. CCOc1ccc(C(=O)N2CCc3cc(S(=O)(=O)N4CC(c5ccccc5)NC4=O)ccc32)cc1 (stereo unspecified) showed a melting point of 216 to 218 °C. For CCC(O)c1c(S(N)(=O)=O)nn(C)c1C(C)(C)C (stereo unspecified), the melting point was 113 to 115 °C. Compound CC1CCCCC1Nc1c(C(=O)O)cnn2cccc12 (stereo unspecified) has a melting point of 195 °C. In the case of O=Cc1ccc(-n2ncc3sc4ccccc4c32)cc1, the melting point is reported as 261 to 263 °C. CN(SN(CC#N)CC#N)C(=O)Oc1cccc2c1OC(C)(C)C2 gave a melting point of 94 to 95 °C. CC(C(N)=S)(c1ccccc1)c1ccccc1 gave a melting point of 150 to 152 °C. CCCC(C1CCCCC1)n1c(C(=O)OC)cnc1S (stereo unspecified) showed a melting point of 181 °C. Compound Cc1cc(C2CCC(c3ccc(O)cc3)CC2)ccc1O (stereo unspecified) has a melting point of 214 °C. With Cc1nc(N2CCCC2)sc1C(=O)c1ccc(Cl)c([N+](=O)[O-])c1 the melting point was 168 to 171 °C. For COCCCc1cc(F)c2ncc(C(=O)NCc3ccc(Cl)cc3)c(O)c2c1, the melting point was 189 to 192 °C.
